In patent publication US9340590B2 (priority 2011, dated 2016) one finds IC50 data, which are given here for 6 molecules.

SMILES strings stand for the structures. Positions of bridges follow the written chain, without caps; N, C: chain ends. Non-standard residues stand in square brackets, D forms with d. Residues, ends and D or L forms follow the SMILES beside them. Trp(1-Me) = Cn1cc(C[C@H](N)C(=O)O)c2ccccc21; Cit = NC(=O)NCCC[C@H](N)C(=O)O

One assay has as its target hNav1.5 (Homo sapiens, UniProt Q14524). Put plainly: cell-based.
A further assay concerns the target hNav1.7 (Homo sapiens, UniProt Q15858). Put plainly: cell-based. Particulars: Nav1.7 Use IC50.

Chain of hNav1.5 (Q14524 whole entry, looked up): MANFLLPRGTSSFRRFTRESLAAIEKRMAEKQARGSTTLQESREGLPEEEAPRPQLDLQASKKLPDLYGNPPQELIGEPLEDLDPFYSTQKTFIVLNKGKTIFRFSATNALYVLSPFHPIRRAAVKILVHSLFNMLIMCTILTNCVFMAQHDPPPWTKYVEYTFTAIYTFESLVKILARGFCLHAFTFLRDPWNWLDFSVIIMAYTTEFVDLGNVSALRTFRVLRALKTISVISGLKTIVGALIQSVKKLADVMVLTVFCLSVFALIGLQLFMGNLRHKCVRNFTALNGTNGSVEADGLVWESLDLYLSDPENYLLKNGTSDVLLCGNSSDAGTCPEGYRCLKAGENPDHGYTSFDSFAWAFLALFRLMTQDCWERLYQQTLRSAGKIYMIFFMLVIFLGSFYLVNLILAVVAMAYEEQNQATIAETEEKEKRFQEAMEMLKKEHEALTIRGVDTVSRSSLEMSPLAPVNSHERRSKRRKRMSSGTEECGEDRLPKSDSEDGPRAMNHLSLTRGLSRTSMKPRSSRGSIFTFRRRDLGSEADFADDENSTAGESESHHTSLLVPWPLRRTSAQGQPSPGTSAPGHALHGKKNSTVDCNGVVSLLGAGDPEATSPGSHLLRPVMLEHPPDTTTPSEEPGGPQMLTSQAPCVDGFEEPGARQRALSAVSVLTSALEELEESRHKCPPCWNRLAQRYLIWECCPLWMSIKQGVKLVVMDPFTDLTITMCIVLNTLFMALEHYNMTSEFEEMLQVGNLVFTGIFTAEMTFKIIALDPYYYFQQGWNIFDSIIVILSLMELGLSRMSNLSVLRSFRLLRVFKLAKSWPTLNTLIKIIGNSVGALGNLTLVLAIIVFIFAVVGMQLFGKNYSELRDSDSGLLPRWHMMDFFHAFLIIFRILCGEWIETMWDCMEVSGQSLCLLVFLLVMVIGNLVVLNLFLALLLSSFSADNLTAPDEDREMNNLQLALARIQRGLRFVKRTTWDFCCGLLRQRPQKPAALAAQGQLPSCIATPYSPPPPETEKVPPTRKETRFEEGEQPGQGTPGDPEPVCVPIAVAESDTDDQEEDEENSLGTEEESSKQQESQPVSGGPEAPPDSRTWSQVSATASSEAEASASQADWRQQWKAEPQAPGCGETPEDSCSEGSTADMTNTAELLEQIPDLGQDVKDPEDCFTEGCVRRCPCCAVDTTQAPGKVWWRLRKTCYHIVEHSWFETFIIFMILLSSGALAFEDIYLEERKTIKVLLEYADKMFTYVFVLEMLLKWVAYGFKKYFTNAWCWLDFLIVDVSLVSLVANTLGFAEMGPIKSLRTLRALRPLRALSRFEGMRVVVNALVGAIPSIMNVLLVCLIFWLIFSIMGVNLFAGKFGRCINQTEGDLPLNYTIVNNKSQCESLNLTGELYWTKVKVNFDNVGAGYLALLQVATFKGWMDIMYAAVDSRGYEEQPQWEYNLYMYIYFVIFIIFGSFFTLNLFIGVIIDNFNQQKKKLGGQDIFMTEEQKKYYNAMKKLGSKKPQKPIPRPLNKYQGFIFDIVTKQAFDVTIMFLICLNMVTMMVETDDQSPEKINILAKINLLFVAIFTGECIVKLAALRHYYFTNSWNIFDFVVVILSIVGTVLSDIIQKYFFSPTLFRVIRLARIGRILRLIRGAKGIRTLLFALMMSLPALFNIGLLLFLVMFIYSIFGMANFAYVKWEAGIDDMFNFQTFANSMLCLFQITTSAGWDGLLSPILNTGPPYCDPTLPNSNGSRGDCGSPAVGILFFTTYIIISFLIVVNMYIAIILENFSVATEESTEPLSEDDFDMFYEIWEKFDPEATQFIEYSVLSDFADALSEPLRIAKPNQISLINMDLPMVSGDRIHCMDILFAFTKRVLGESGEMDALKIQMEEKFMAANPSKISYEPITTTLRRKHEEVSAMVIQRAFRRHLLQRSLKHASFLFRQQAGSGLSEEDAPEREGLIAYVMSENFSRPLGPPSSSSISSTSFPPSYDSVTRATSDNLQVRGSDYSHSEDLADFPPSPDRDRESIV
Chain of hNav1.7 (Q15858 whole entry, looked up): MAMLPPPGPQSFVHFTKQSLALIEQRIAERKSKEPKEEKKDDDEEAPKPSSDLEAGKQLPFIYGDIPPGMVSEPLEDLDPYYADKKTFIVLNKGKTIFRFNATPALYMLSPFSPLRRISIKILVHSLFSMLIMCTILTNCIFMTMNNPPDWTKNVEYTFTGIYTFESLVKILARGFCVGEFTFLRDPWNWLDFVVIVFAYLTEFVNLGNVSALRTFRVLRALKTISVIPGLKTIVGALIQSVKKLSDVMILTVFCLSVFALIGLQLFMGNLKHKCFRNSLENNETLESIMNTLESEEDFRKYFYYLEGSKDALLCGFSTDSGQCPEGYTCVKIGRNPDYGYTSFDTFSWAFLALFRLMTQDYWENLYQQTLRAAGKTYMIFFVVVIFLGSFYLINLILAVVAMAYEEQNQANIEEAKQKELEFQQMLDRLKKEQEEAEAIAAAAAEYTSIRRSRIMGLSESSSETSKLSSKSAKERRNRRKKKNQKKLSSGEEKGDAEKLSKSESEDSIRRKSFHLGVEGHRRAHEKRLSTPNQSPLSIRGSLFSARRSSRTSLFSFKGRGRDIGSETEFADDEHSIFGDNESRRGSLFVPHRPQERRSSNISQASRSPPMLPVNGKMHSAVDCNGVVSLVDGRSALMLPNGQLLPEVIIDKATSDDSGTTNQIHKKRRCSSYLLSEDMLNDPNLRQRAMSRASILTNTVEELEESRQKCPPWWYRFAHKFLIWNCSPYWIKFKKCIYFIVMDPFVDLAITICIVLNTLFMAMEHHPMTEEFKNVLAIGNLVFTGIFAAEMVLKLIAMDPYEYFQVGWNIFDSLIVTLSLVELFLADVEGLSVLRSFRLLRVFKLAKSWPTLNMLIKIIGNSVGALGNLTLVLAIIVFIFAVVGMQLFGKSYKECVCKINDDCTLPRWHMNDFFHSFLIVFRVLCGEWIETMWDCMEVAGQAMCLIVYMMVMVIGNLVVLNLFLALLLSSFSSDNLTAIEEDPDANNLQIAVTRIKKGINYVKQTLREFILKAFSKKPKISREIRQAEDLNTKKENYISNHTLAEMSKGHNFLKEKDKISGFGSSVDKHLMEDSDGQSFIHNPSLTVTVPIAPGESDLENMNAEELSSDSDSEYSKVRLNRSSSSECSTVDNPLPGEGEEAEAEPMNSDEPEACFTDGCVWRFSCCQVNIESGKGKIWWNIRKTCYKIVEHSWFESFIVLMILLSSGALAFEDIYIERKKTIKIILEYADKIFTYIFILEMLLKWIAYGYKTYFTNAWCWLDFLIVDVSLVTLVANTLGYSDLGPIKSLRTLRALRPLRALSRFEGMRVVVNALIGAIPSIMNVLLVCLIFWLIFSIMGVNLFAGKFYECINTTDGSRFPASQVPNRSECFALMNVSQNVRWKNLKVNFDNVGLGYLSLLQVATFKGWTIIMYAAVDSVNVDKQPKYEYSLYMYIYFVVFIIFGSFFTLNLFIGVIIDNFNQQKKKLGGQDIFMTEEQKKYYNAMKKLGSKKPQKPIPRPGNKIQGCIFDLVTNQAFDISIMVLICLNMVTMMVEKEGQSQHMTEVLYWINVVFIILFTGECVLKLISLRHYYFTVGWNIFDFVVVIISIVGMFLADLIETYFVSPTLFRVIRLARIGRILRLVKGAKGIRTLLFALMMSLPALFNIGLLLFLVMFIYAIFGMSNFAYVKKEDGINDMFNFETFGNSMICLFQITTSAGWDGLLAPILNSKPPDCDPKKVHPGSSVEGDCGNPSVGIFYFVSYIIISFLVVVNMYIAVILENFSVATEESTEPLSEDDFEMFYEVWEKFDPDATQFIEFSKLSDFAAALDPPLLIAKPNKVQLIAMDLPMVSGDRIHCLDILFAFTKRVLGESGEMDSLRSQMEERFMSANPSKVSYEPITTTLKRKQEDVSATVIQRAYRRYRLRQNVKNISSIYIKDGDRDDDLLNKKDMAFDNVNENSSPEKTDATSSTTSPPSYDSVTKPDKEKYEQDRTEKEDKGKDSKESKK

In the case of `CC[C@H](C)[C@@H]1NC(=O)[C@@H]2CSSC[C@@H]3NC(=O)[C@H](C(C)C)NC(=O)[C@H](CC(C)C)NC(=O)[C@H](CC(N)=O)NC(=O)[C@@H]4CCCN4C(=O)[C@H](CCCNC(=N)N)NC(=O)[C@H](CSSC[C@H](NC(=O)[C@@H](N)CC(=O)O)C(=O)N[C@@H](CC(C)C)C(=O)NCC(=O)N[C@@H](C(C)C)C(=O)N[C@@H](CCSC)C(=O)N[C@@H](CCCNC(=N)N)C(=O)N[C@@H](CCCCN)C(=O)N2)NC(=O)[C@H](CSSC[C@@H](C(=O)N[C@@H](CCCCN)C(=O)N[C@@H](Cc2ccc(O)cc2)C(=O)N[C@H](C(=O)N[C@@H](Cc2ccccc2)C(N)=O)C(C)C)NC(=O)[C@H](Cc2c[nH]c4ccccc24)NC(=O)[C@H](CCCCN)NC(=O)[C@H](Cc2c[nH]cn2)NC(=O)[C@H]([C@@H](C)O)NC(=O)[C@H](CCCNC(N)=O)NC(=O)[C@H](CO)NC3=O)NC(=O)[C@H](CCCCN)NC(=O)[C@H](CC(=O)O)NC(=O)[C@H](CC(N)=O)NC(=O)[C@H](CC(=O)O)NC(=O)[C@@H]2CCCN2C1=O` [[Val5;Cit25]GpTx-1(1-34)] (H-DCLGVMRKCIPDNDKCCRPNLVCS[Cit]THKWCKYVF-NH2; disulfide 2-17, 9-23, 16-30), the IC50 (in general, the point on the concentration scale where inhibition reaches its midpoint) on hNav1.5 is above 10000 nM; against hNav1.7, 28 nM.

As to `CC[C@H](C)[C@@H]1NC(=O)[C@@H]2CSSC[C@@H]3NC(=O)[C@H](C(C)C)NC(=O)[C@H](CC(C)C)NC(=O)[C@H](CC(N)=O)NC(=O)[C@@H]4CCCN4C(=O)[C@H](CCCNC(=N)N)NC(=O)[C@H](CSSC[C@H](NC(=O)[C@@H](N)CC(=O)O)C(=O)N[C@@H](CC(C)C)C(=O)NCC(=O)N[C@@H](CCSC)C(=O)N[C@@H](CCSC)C(=O)N[C@@H](CCCNC(=N)N)C(=O)N[C@@H](CCCCN)C(=O)N2)NC(=O)[C@H](CSSC[C@@H](C(=O)N[C@@H](CCCCN)C(=O)N[C@@H](Cc2cn(C)c4ccccc24)C(=O)N[C@H](C(=O)N[C@@H](Cc2ccccc2)C(N)=O)C(C)C)NC(=O)[C@H](Cc2c[nH]c4ccccc24)NC(=O)[C@H](CCCCN)NC(=O)[C@H](Cc2c[nH]cn2)NC(=O)[C@H]([C@@H](C)O)NC(=O)[C@H](CCCNC(=N)N)NC(=O)[C@H](CO)NC3=O)NC(=O)[C@H](CCCCN)NC(=O)[C@H](CC(=O)O)NC(=O)[C@H](CC(N)=O)NC(=O)[C@H](CC(=O)O)NC(=O)[C@@H]2CCCN2C1=O` [[Met5;1′NMeW32]GpTx-1(1-34)] (H-DCLGMMRKCIPDNDKCCRPNLVCSRTHKWCK[Trp(1-Me)]VF-NH2; disulfide 2-17, 9-23, 16-30), the results for the IC50 on hNav1.5 and on hNav1.7 were 14800 nM and 7 nM, respectively.

Take `CC[C@H](C)[C@@H]1NC(=O)[C@@H]2CSSC[C@@H]3NC(=O)[C@H](C(C)C)NC(=O)[C@H](CC(C)C)NC(=O)[C@H](CC(N)=O)NC(=O)[C@@H]4CCCN4C(=O)[C@H](CCCNC(=N)N)NC(=O)[C@H](CSSC[C@H](NC(=O)[C@@H](N)CC(=O)O)C(=O)N[C@@H](CC(C)C)C(=O)NCC(=O)N[C@@H](C)C(=O)N[C@@H](Cc4ccccc4)C(=O)N[C@@H](CCCNC(=N)N)C(=O)N[C@@H](CCCCN)C(=O)N2)NC(=O)[C@H](CSSC[C@@H](C(=O)N[C@@H](CCCCN)C(=O)N[C@@H](Cc2ccc(O)cc2)C(=O)N[C@H](C(=O)N[C@@H](Cc2ccccc2)C(N)=O)C(C)C)NC(=O)[C@H](Cc2c[nH]c4ccccc24)NC(=O)[C@H](CCCCN)NC(=O)[C@H](Cc2c[nH]cn2)NC(=O)[C@H]([C@@H](C)O)NC(=O)[C@H](CCCNC(=N)N)NC(=O)[C@H](CO)NC3=O)NC(=O)[C@H](CCCCN)NC(=O)[C@H](CC(=O)O)NC(=O)[C@H](CC(N)=O)NC(=O)[C@H](CCC(=O)O)NC(=O)[C@@H]2CCCN2C1=O` [[Ala5;Phe6;Glu12]GpTx-1(1-34)] (H-DCLGAFRKCIPENDKCCRPNLVCSRTHKWCKYVF-NH2; disulfide 2-17, 9-23, 16-30): the IC50 against hNav1.5 is above 10000 nM; against hNav1.7, 28 nM.

In the case of `CC[C@H](C)[C@@H]1NC(=O)[C@@H]2CSSC[C@@H]3NC(=O)[C@H](C(C)C)NC(=O)[C@H](CC(C)C)NC(=O)[C@H](CC(N)=O)NC(=O)[C@@H]4CCCN4C(=O)[C@H](CCCNC(=N)N)NC(=O)[C@H](CSSC[C@H](NC(=O)[C@@H](N)CC(=O)O)C(=O)N[C@@H](CC(C)C)C(=O)NCC(=O)N[C@@H](C)C(=O)N[C@@H](CCSC)C(=O)N[C@@H](CCCNC(=N)N)C(=O)N[C@@H](CCCCN)C(=O)N2)NC(=O)[C@H](CSSC[C@@H](C(=O)N[C@@H](CCCCN)C(=O)N[C@@H](Cc2ccc(O)cc2)C(=O)N[C@H](C(=O)N[C@@H](Cc2ccccc2)C(N)=O)C(C)C)NC(=O)[C@H](Cc2c[nH]c4ccccc24)NC(=O)[C@H](CCCNC(N)=O)NC(=O)[C@H](Cc2c[nH]cn2)NC(=O)[C@H]([C@@H](C)O)NC(=O)[C@H](CCCNC(=N)N)NC(=O)[C@H](CO)NC3=O)NC(=O)[C@H](CCCCN)NC(=O)[C@H](CC(=O)O)NC(=O)[C@H](CC(N)=O)NC(=O)[C@H](CC(=O)O)NC(=O)[C@@H]2CCCN2C1=O` [[Ala5;Cit28]GpTx-1(1-34)] (H-DCLGAMRKCIPDNDKCCRPNLVCSRTH[Cit]WCKYVF-NH2; disulfide 2-17, 9-23, 16-30), the IC50 was above 10000 nM on hNav1.5 and 30 nM at hNav1.7.

On to `CC[C@H](C)[C@@H]1NC(=O)[C@@H]2CSSC[C@@H]3NC(=O)[C@H](C(C)C)NC(=O)[C@H](CC(C)C)NC(=O)[C@H](CC(N)=O)NC(=O)[C@@H]4CCCN4C(=O)[C@H](CCCNC(=N)N)NC(=O)[C@H](CSSC[C@H](NC(=O)[C@@H](N)CC(=O)O)C(=O)N[C@@H](CC(C)C)C(=O)NCC(=O)N[C@@H](Cc4ccccc4)C(=O)N[C@@H](CCSC)C(=O)N[C@@H](CCCNC(=N)N)C(=O)N[C@@H](CCCCN)C(=O)N2)NC(=O)[C@H](CSSC[C@@H](C(=O)N[C@@H](CCCCN)C(=O)N[C@@H](Cc2ccc(O)cc2)C(=O)N[C@@H](Cc2c[nH]c4ccccc24)C(=O)N[C@@H](Cc2ccccc2)C(N)=O)NC(=O)[C@H](Cc2c[nH]c4ccccc24)NC(=O)[C@H](CCCCN)NC(=O)[C@H](Cc2c[nH]cn2)NC(=O)[C@H]([C@@H](C)O)NC(=O)[C@H](CCCNC(=N)N)NC(=O)[C@H](CO)NC3=O)NC(=O)[C@H](CCCCN)NC(=O)[C@H](CC(=O)O)NC(=O)[C@H](CC(N)=O)NC(=O)[C@H](CC(=O)O)NC(=O)[C@@H]2CCCN2C1=O` [[Trp33]GpTx-1(1-34)] (H-DCLGFMRKCIPDNDKCCRPNLVCSRTHKWCKYWF-NH2; disulfide 2-17, 9-23, 16-30), for which the IC50 on hNav1.5 worked out at 2350 nM; on hNav1.7, 18 nM.

In the case of `CCC[C@@H]1NC(=O)CNC(=O)[C@H](CC(C)C)NC(=O)[C@@H](NC(=O)[C@@H](N)CC(=O)O)CSSC[C@@H]2NC(=O)[C@@H]3CSSC[C@@H](C(=O)N[C@@H](CCCCN)C(=O)N[C@@H](Cc4ccc(O)cc4)C(=O)N[C@H](C(=O)N[C@@H](Cc4ccccc4)C(N)=O)C(C)C)NC(=O)[C@H](Cc4c[nH]c5ccccc45)NC(=O)[C@H](CCCCN)NC(=O)[C@H](Cc4c[nH]cn4)NC(=O)[C@H]([C@@H](C)O)NC(=O)[C@H](CCCNC(=N)N)NC(=O)[C@H](CO)NC(=O)[C@H](CSSC[C@H](NC(=O)[C@H](CCCCN)NC(=O)[C@H](CCCNC(=N)N)NC(=O)[C@H](CC(C)C)NC1=O)C(=O)N[C@@H]([C@@H](C)CC)C(=O)N1CCC[C@H]1C(=O)N[C@@H](CC(=O)O)C(=O)N[C@@H](CC(N)=O)C(=O)N[C@@H](CC(=O)O)C(=O)N[C@@H](CCCCN)C(=O)N3)NC(=O)[C@H](C(C)C)NC(=O)[C@H](CC(C)C)NC(=O)[C@H](CC(N)=O)NC(=O)[C@@H]1CCCN1C(=O)[C@H](CCCNC(=N)N)NC2=O` [[Nva5;Leu6]GpTx-1(1-34)], the IC50 against hNav1.5 was above 10000 nM; against hNav1.7 it was 83 nM.
